Data: patent US12157730B2, “Heteroaryl derivative, method for producing same, and pharmaceutical composition comprising same as effective component” (VORONOI INC., priority 2019, dated 2024)
Where “and” joins values, the source holds several entries; their conditions need not be identical. Equal entries are not always repeated.

Tests used:
[1] = molecular target: T1, Ba/F3 cell EGFR Exon20 ins FQEA (Homo sapiens, UniProt P00533, INS763FQEA); assay: Ba/F3 cell proliferation suppression, EGFR Exon20 ins FQEA; assay type: cell-based; conditions: 72 hours after treatment, CellTiter-Glo
T1 construct: expressed in transfected cells; host or cells: Ba/F3
Description: (§1) The following experiment was carried out to evaluate the suppression activity of the compounds according to the present invention against proliferation of Ba/F3 and lung cancer cells which express EGFR mutations.
(§2) Of the cancer cell lines expressing the EGFR gene, A549 was cultured after adding 10% FBS (HyClone) to DMEM (Invitrogen), and RPMI-1640 (Invitrogen) with 10% FBS was used for the other cancer cells. For the Ba/F3 cells, RPMI-1640 with 10% FBS and 5 ng/ml IL-3 (R&D Systems) was used. The transduced Ba/F3 cells were cultured by adding 1 ug/ml puromycin (Invitrogen) to the same medium.
(§3) 24 hours before treatment with the compounds, 3000 to 5000 cells were distributed into each well of a white clear bottom 96 well plate (Corning). The compounds were diluted in dimethylsulfoxide (dilution ratio 3:1; 12 concentrations total) and injected 0.5 ul each for a final concentration of 0.3 nM to 50 um. As for measurement of live cells, 72 hours after treatment with the compounds, a CellTiter-Glo luminescent cell-viability reagent (Promega) was used to store the cells at room temperature for 10 minutes, followed by measurement of luminescence using a reader (SynergyNeo, Biotek). Each test was repeated three times.
(§4) The result was calculated as a cell growth ratio (%) compared to a control. The program GraphPad Prism version 5.0 was used to draw the graphs and calculate the GI50 values.

[2] = tested on: Ba/F3 cell EGFR Exon20 ins H; assay: Ba/F3 cell proliferation suppression, EGFR Exon20 ins H; assay type: cell-based; conditions: 72 hours after treatment, CellTiter-Glo
Description: as §1, §2, §3, §4

PC9 = assay: Lung cancer cell proliferation suppression, PC9; assay type: cell-based; conditions: Homo sapiens, PC-9; 72 hours after treatment, CellTiter-Glo
Description: as §1, §2, §3, §4

[3] = molecular target: T2, Ba/F3 cell EGFR Exon20 ins SVD (Homo sapiens, UniProt P00533, INS770SVD); assay: Ba/F3 cell proliferation suppression, EGFR Exon20 ins SVD; assay type: cell-based; conditions: 72 hours after treatment, CellTiter-Glo
T2 construct: expressed in transfected cells; host or cells: Ba/F3
Description: as §1, §2, §3, §4

Ba/F3 cell naive = assay: Ba/F3 cell proliferation suppression, naive; assay type: cell-based; conditions: Mus musculus, BaF3; 72 hours after treatment, CellTiter-Glo
Description: as §1, §2, §3, §4

[4] = molecular target: T3, Ba/F3 cell EGFR L858R/T790M (Homo sapiens, UniProt P00533, L858R/T790M); assay: Ba/F3 cell proliferation suppression, EGFR L858R/T790M; assay type: cell-based; conditions: 72 hours after treatment, CellTiter-Glo
T3 construct: expressed in transfected cells; host or cells: Ba/F3
Description: as §1, §2, §3, §4

H1975 = assay: Lung cancer cell proliferation suppression, H1975; assay type: cell-based; conditions: Homo sapiens, NCI-H1975; 72 hours after treatment, CellTiter-Glo
Description: as §1, §2, §3, §4

[5] = molecular target: T4, Ba/F3 cell EGFR Exon20 ins ASV (Homo sapiens, UniProt P00533, INS769ASV); assay: Ba/F3 cell proliferation suppression, EGFR Exon20 ins ASV; assay type: cell-based; conditions: 72 hours after treatment, CellTiter-Glo
T4 construct: expressed in transfected cells; host or cells: Ba/F3
Description: as §1, §2, §3, §4

[6] = molecular target: T5, Ba/F3 cell HER2 Exon20 ins YVMA (Homo sapiens, UniProt P04626, INS775YVMA); assay: Ba/F3 cell proliferation suppression, HER2 Exon20 ins YVMA; assay type: cell-based; conditions: 72 hours after treatment, CellTiter-Glo
T5 construct: expressed in transfected cells; host or cells: Ba/F3
Description: as §1, §2, §3, §4

[7] = molecular target: T6, Ba/F3 cell EGFR Exon20 ins NPH (Homo sapiens, UniProt P00533, INS773NPH); assay: Ba/F3 cell proliferation suppression, EGFR Exon20 ins NPH; assay type: cell-based; conditions: for GI50: 72 hours after treatment, CellTiter-Glo; for Ba/F3 (NPH) Activity: GI50 class, Ba/F3 cell line with NPH inserted at Exon20 of EGFR, 72 hours
T6 construct: expressed in transfected cells; host or cells: Ba/F3
Method in brief: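 Seed 3000–5000 cells/well; after 24 h add compound (12 conc., 0.3 nM–50 um final); incubate 72 h; add CellTiter-Glo, 10 min room temperature; read luminescence; GI50 from % growth vs control, triplicate.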

[8] = tested on: Ba/F3 cell EGFR Del19/T790M; assay: Ba/F3 cell proliferation suppression, EGFR Del19/T790M; assay type: cell-based; conditions: 72 hours after treatment, CellTiter-Glo
Description: as §1, §2, §3, §4

Ba/F3 cell EGFR L858R = molecular target: T7, Ba/F3 cell EGFR L858R (Homo sapiens, UniProt P00533, L858R); assay: Ba/F3 cell proliferation suppression, EGFR L858R; assay type: cell-based; conditions: 72 hours after treatment, CellTiter-Glo
T7 construct: expressed in transfected cells; host or cells: Ba/F3
Description: as §1, §2, §3, §4

PC9GR = assay: Lung cancer cell proliferation suppression, PC9GR; assay type: cell-based; conditions: 72 hours after treatment, CellTiter-Glo
Description: as §1, §2, §3, §4

[9] = Cancer cell proliferation suppression, A549; assay type: cell-based; conditions: A459; 72 hours after treatment, CellTiter-Glo
Description: as §1, §2, §3, §4

[10] = tested on: scanMAX kinase panel (EGFR mutant, ERBB2, ERBB4); assay: DiscoverX (eurofin) KINOMEscan (scanMAX platform) kinase profiling; assay type: binding; conditions: for suppression activity against the EGFR mutant and ERBB2 and ERBB4: KINOMEscan scanMAX kinase profiling
Description: It was confirmed that the above example compounds had high selectivity against EGFR series genes. Accordingly, these can be useful in the treating of cancers wherein this kinase is expressed. In particular, as they have substantially outstanding lung cancer cell line proliferation suppression, they can be useful in the treatment of lung cancer, breast cancer, and brain cancer.

T5 sequence (P04626 with tags, fused parts or gaps INS775YVMA): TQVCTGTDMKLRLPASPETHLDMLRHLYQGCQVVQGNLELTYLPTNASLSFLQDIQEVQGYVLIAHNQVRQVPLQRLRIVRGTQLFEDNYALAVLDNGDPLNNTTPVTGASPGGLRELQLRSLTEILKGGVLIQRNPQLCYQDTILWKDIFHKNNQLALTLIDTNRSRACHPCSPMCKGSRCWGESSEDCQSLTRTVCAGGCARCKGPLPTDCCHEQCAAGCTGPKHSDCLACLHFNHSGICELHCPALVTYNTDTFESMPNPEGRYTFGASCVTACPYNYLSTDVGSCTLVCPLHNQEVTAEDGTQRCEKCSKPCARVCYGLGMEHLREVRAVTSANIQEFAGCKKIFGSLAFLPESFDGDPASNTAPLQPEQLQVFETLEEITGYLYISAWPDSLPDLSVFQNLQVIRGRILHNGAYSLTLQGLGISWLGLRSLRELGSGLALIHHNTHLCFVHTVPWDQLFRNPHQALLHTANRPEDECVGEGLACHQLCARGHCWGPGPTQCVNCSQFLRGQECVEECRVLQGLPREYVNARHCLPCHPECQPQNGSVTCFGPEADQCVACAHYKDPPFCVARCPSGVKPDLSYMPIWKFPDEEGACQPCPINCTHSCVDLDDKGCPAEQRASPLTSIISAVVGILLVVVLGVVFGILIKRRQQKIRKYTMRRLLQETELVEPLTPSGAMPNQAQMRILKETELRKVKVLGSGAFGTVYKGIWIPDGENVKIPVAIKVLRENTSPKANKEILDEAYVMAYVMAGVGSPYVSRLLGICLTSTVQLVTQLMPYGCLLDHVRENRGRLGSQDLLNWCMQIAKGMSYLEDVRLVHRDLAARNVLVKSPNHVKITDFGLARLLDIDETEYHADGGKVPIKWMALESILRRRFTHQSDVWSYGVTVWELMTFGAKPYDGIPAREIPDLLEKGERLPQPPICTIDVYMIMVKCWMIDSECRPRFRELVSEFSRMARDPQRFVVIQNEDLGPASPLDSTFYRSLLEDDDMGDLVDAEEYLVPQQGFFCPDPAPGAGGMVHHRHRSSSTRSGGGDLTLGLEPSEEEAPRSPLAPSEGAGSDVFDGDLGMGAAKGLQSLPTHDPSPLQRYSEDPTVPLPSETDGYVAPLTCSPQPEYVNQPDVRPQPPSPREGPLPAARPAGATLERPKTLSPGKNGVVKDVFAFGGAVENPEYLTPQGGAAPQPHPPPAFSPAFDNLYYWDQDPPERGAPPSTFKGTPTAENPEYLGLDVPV

| Structure (SMILES) | GI50 [1] [µM] | GI50 [2] [µM] | GI50 (PC9) [nM] | GI50 [3] [µM] | GI50 (Ba/F3 cell naive) [µM] | GI50 [4] [µM] | GI50 (H1975) [nM] | GI50 [5] [µM] | GI50 [6] [µM] | GI50 [7] [µM] | Ba/F3 (NPH) Activity [7] | GI50 [8] [µM] | GI50 (Ba/F3 cell EGFR L858R) [µM] | GI50 (PC9GR) [nM] | GI50 [9] [nM] | other results |
| --- | --- | --- | --- | --- | --- | --- | --- | --- | --- | --- | --- | --- | --- | --- | --- | --- |
| C=CC(=O)Nc1cc(Nc2cc(N3OCC[C@@H]3c3ccccc3)ncn2)c(OC)cc1N1CCC(N(C)C)CC1 [Example 12, N-(2-(4-(dimethylamino)piperidine-1-yl)-4-methoxy-5-((6-((R)-3-phenylisoxazolidine-2-yl)pyrimidine-4-yl)amino)phenyl) acrylamide] | < 0.05 | < 0.05 | 12 | < 0.05 | ≥ 5 | < 0.05 | 8 | < 0.05 | < 0.05 | < 0.05 | A (GI50 < 50 nM) | < 0.05 | < 0.05 | 5 | > 15000 |  |
| C=CC(=O)Nc1cc(Nc2cc(N3OCC[C@@H]3c3ccccc3)ncn2)c(OC)cc1N1CCN(C2CCN(C)CC2)CC1 [Example 10] | < 0.05 | < 0.05 | 14 | < 0.05 | ≥ 5 | < 0.05 | 13 | < 0.05 | < 0.05 | < 0.05 | A (GI50 < 50 nM) | < 0.05 | < 0.05 | 10 | > 15000 |  |
| C=CC(=O)Nc1cc(Nc2cc(N3OCC[C@H]3c3ccccc3)ncn2)c(OC)cc1N1CCN(C)CC1 [Example 3, N-(4-methoxy-2-(4-methylpiperazine-1-yl)-5-((6((S)-3-phenylisoxazolidine-2-yl)pyrimidine-4-yl)amino)phenyl) acrylamide] | < 0.05 | 0.5 to 5 |  | 0.05 to 0.5 | ≥ 5 | 0.5 to 5 |  | 0.05 to 0.5 | 0.05 to 0.5 | 0.05 to 0.5 | B (50 nM ≤ GI50 < 500 nM) | 0.05 to 0.5 |  |  |  |  |
| C=CC(=O)N1CCC(Oc2cc3c(Nc4ccc(Cl)c(Cl)c4F)ncnc3cc2OC)CC1 [Poziotinib] |  |  | 1 |  |  |  | 34 |  |  |  |  |  |  | 20 | > 15000 |  |
| O=C(Nc1cnn2ccc(N3CCC[C@@H]3c3cc(F)ccc3F)nc12)N1CC[C@H](O)C1 [Larotrectinib] |  |  | 5 |  |  |  | 24 |  |  |  |  |  |  | 14 | 4820 |  |
| C=CC(=O)Nc1cc(Nc2cc(N3OCC[C@@H]3c3cc(F)cc(F)c3)ncn2)c(OC)cc1N1CCC(N(C)C)CC1 [Example 241, N-(5-((6-((R)-3-(3,5-difluorophenyl)isoxazolidine-2-yl)pyrimidine-4-yl)amino)-2-(4-(dimethylamino)piperidine-1-yl)-4-methoxyphenyl) acrylamide] | < 0.05 |  | 1 | < 0.05 | 0.5 to 5 | < 0.05 | 1 | < 0.05 | < 0.05 | < 0.05 | A (GI50 < 50 nM) | < 0.05 | < 0.05 | 12 |  | % inhibition of scanMAX Kinase profiling ([10]; EGFR(E746-A750del)): 50% and 100%; % inhibition of scanMAX Kinase profiling ([10]; EGFR(G719C)): 100%; % inhibition of scanMAX Kinase profiling ([10]; EGFR(G719S)): 100% and 99%; % inhibition of scanMAX Kinase profiling ([10]; EGFR(L747-E749del, A750P)): 99% and 98%; % inhibition of scanMAX Kinase profiling ([10]; EGFR(L747-T751del.Sins)): 100% and 96%; % inhibition of scanMAX Kinase profiling ([10]; EGFR(L858R.T790M)): 96% and 98%; % inhibition of scanMAX Kinase profiling ([10]; EGFR(L861q)): 100% and 98%; % inhibition of scanMAX Kinase profiling ([10]; EGFR(S752-I759del)): 100% and 95%; % inhibition of scanMAX Kinase profiling ([10]; EGFR(T790M)): 100%; % inhibition of scanMAX Kinase profiling ([10]; ERBB2): 100%; % inhibition of scanMAX Kinase profiling ([10]; ERBB4): 100% and 94%; suppression activity against the EGFR mutant and ERBB2 and ERBB4 [10]: high suppression activity |
| C=CC(=O)Nc1cc(Nc2cc(N3OCC[C@@H]3c3cc(F)cc(F)c3)ncn2)c(OC)cc1N1CCC(N2C[C@@H]3C[C@H]2CO3)CC1 [Example 239, N-(2-(4-((1S,4S)-2-oxa-5-azabicyclo[2.2.1]heptane-5-yl)piperidine-1-yl)-5-((6-((R)-3-(3,5-difluorophenyl)isoxazolidine-2-yl)pyrimidine-4-yl)amino)-4-methoxyphenyl) acrylamide] | < 0.05 |  | 1 | < 0.05 | ≥ 5 | < 0.05 | 1 | < 0.05 | < 0.05 | < 0.05 | A (GI50 < 50 nM) | < 0.05 | < 0.05 | 5 |  | % inhibition of scanMAX Kinase profiling ([10]; EGFR(E746-A750del)): 96%; % inhibition of scanMAX Kinase profiling ([10]; EGFR(G719C)): 100%; % inhibition of scanMAX Kinase profiling ([10]; EGFR(G719S)): 99%; % inhibition of scanMAX Kinase profiling ([10]; EGFR(L747-E749del, A750P)): 95%; % inhibition of scanMAX Kinase profiling ([10]; EGFR(L747-T751del.Sins)): 93%; % inhibition of scanMAX Kinase profiling ([10]; EGFR(L858R)): 100%; % inhibition of scanMAX Kinase profiling ([10]; EGFR(L858R.T790M)): 98%; % inhibition of scanMAX Kinase profiling ([10]; EGFR(L861q)): 97%; % inhibition of scanMAX Kinase profiling ([10]; EGFR(S752-I759del)): 82%; % inhibition of scanMAX Kinase profiling ([10]; EGFR(T790M)): 100%; % inhibition of scanMAX Kinase profiling ([10]; ERBB2): 100%; % inhibition of scanMAX Kinase profiling ([10]; ERBB4): 100%; suppression activity against the EGFR mutant and ERBB2 and ERBB4 [10]: high suppression activity |
| C=CC(=O)Nc1cc(Nc2nccc(-c3cn(C)c4ccccc34)n2)c(OC)cc1N(C)CCN(C)C [Osimertinib] |  |  | 7 |  |  |  | 36 |  |  |  |  |  |  | 16 | 2410 |  |
| C=CC(=O)Nc1cc(Nc2cc(N3OCC[C@@H]3c3ccccc3)ncn2)ccc1N1CCN(C)CC1 [Example 29, N-(2-(4-methylpiperazine-1-yl)-5-((6-((R)-3-phenylisoxazolidine-2-yl)pyrimidine-4-yl)amino)phenyl) acrylamide] | < 0.05 | < 0.05 |  | < 0.05 | ≥ 5 | < 0.05 |  | < 0.05 | < 0.05 | < 0.05 | A (GI50 < 50 nM) | < 0.05 | < 0.05 |  |  |  |
| C=CC(=O)Nc1cc(Nc2cc(N3OCC[C@@H]3c3ccccc3)ncn2)ccc1N(C)CCN(C)C [Example 28] | < 0.05 | < 0.05 |  | < 0.05 | 0.5 to 5 | < 0.05 |  | < 0.05 | < 0.05 | < 0.05 | A (GI50 < 50 nM) | < 0.05 | < 0.05 |  |  |  |
| C=CC(=O)Nc1cc(Nc2cc(N3OCC[C@@H]3c3ccccc3)ncn2)c(OC)cc1N1CCC(N2CCOCC2)CC1 [Example 11, N-(4-methoxy-2-(4-morpholinopiperidine-1-yl)-5-((6-((R)-3-phenylisoxazolidine-2-yl)pyrimidine-4-yl)amino)phenyl) acrylamide] |  |  | 2 |  |  |  | 9 |  |  |  | A (GI50 < 50 nM) |  |  | 7 | > 15000 |  |
